Measured values reported in ChEMBL document CHEMBL4622894, “An effective method to produce 7-epitaxol from taxol in HCO3” (Bioorg Med Chem Lett, 2020).

Key:
Saccharomyces cerevisiae [1] = assay: Antifungal activity against Saccharomyces cerevisiae S288C assessed as fungal growth inhibition; assay type: functional, organism-based
Saccharomyces cerevisiae [2] = assay: Antifungal activity against Saccharomyces cerevisiae AD18 assessed as fungal growth inhibition; assay type: functional, organism-based

| Compound | IC50 (Saccharomyces cerevisiae [1]) [µM] | IC50 (Saccharomyces cerevisiae [2]) [µM] |
| --- | --- | --- |
| CC(=O)O[C@H]1C(=O)[C@]2(C)[C@H](O)C[C@H]3OC[C@@]3(OC(C)=O)[C@H]2[C@H](OC(=O)c2ccccc2)[C@]2(O)C[C@H](OC(=O)[C@H](O)[C@@H](NC(=O)c3ccccc3)c3ccccc3)C(C)=C1C2(C)C | > 100 | 71.5 |
| CC(=O)O[C@H]1C(=O)[C@@]2(C)[C@H]([C@H](OC(=O)c3ccccc3)[C@]3(O)C[C@H](OC(=O)[C@H](O)[C@@H](NC(=O)c4ccccc4)c4ccccc4)C(C)=C1C3(C)C)[C@]1(OC(C)=O)CO[C@@H]1C[C@@H]2O [PACLITAXEL] | > 100 | > 100 |
